Source: US10478501B2, “Method of treating disorders using a pharmaceutical composition of oligopeptides” (Merck Patent GmbH, priority 2011, dated 2019)

Assay: Water Vapour Sorption (dynamic vapour experiments)
Assay type: physicochemical
Settings: 25° C., up to 98% relative humidity, acc. to Ph. Eur. criteria
Text: Preferably, the anhydrates as described herein and especially the crystalline form A1 can be characterised, alternatively or additionally, by dynamic vapour experiments. The results can be obtained by standard techniques as described in Rolf Hilfiker, ‘Polymorphism in the Pharmaceutical Industry’, Wiley-VCH. Weinheim 2006 (Chapter 9: Water Vapour Sorption, and references therein). […] Eur. criteria.

## CC(C)[C@H]1C(=O)N[C@@H](CCCNC(=N)N)C(=O)NCC(=O)N[C@@H](CC(=O)O)C(=O)N[C@H](Cc2ccccc2)C(=O)N1C [crystalline form A1, cyclo-(Arg-Gly-Asp-DPhe-NMeVal)]
  hygroscopicity (Water Vapour Sorption behaviour): non-hygroscopic
